Data from patent US20230140972A1, “GLYCEROL GLUCOSIDE-BASED COMPOUND AND COMPOSITION COMPRISING SAME FOR ULTRAVIOLET LIGHT SHIELD OR ANTI-INFLAMMATION” (ATHENA CO., LTD., priority 2020, published 2023).
“And” between values parts separate entries of the source, which are not always exact repeats. Identical values can stand only once.

How the values were obtained:
Format in all cases: cell-based, mouse
[1] = tested on: NO2 production in LPS-treated RAW264.7 cells; assay: Nitric oxide (NO2) production amount and inhibition, non-enzymatic method; conditions: LPS 1 μg/mL, 24 h
Experimental: An NO assay was performed to evaluate an amount of nitric oxide (NO2) production and a production inhibition ability of the glycerol glucoside-based compound sample (EPS-S).
Specifically, subcultured RAW264.7 cells were aliquoted into a 96-well plate at 1×10^5 cells/well, and cultured at 37° C. in an incubator containing 5% carbon dioxide for 24 hours, and then a culture media was replaced with a serum-free media. […] Dexamethasone was used as a positive control group.

p-NF-κB = assay: Western blot of p-NF-κB protein expression; conditions: RAW264.7 cells, LPS, 15 minutes, 100 ppm; untreated = 100, negative control 222.25
Experimental: (§1) A western blot was performed as follows to observe p-IKK, p-IκB and p-NF-κB protein expression abilities of the glycerol glucoside-based compound sample (EPS-S).
(§2) Specifically, the subcultured mouse-derived macrophage line, RAW264.7 cells, were aliquoted in a 60 mm dish at 1.5×10^6 cells, and cultured for 24 hours at 37° C. in an incubator containing 5% carbon dioxide, and then a culture media was replaced with a serum-free media. Then, the glycerol glucoside-based compound sample (EPS-S) was diluted by concentration and treated onto the cells with LPS (final 1 μg/mL). After culturing for 15 minutes, protein was lysed (lysis) to recover cytoplasmic and nuclear extracts, and proteins were separated by size through SDS-PAGE. After transferring the protein to a membrane through a transfer, a primary antibody was attached thereto and reacted at 4° C. overnight. After the primary reaction, a secondary antibody was attached thereto, and reacted at room temperature for 1 hour, an ECL solution was sprayed on the entire surface, and a band image was obtained through a bioimage analyzer. After obtaining a band intensity of each band through Image J, normalization was performed using β-acitn and substituted in Equation 7 below to obtain the expression rate of p-IKK, p-IκB and p-NF-κB proteins in the treated sample group compared to the untreated group.

[2] = tested on: PGE2 production in RAW264.7 cells; assay: PGE2 production inhibition using ELISA assay; conditions: LPS 10 ng/mL
Experimental: A PGE2 production inhibition ability of the sample in RAW264.7 cells was evaluated using a PGE2 ELISA assay.
Specifically, subcultured RAW264.7 cells were aliquoted into a 6-well dish at 1.5×10^6 cells/well and cultured for 24 hours at 37° C. in an incubator containing 5% carbon dioxide, and then a culture media was replaced with a serum-free media. Then, each sample was diluted by concentration and treated onto the cells with LPS (final 10 ng/mL). After culturing for 24 hours, the cell culture medium was recovered and a PGE2 ELISA assay was performed.
100 μL of each of a standard solution and a cell culture solution were put into each well, and then 50 μL of PGE2 conjugate and 50 μL of PGE2 antibody were sequentially added and reacted at room temperature for 2 hours. Then, the reaction solution was removed from each well, washing is performed with a wash buffer, 200 μL of a substrate solution was then added, and reacted at room temperature for 45 minutes. Then, 50 μL of a stop solution was added and an absorbance was measured at 405 and 570 nm. Dexamethasone was used as a positive control group. After the test was conducted once, an amount of PGE2 production was calculated by substituting the absorbance value into a PGE2 standard solution calibration curve, and the PGE2 production inhibition rate (%) was calculated using Equation 5 below and expressed as the mean±standard deviation.

p-IKK = assay: Western blot of p-IKK protein expression; conditions: RAW264.7 cells, LPS, 15 minutes, 100 ppm; untreated = 100, negative control 1001.95
Experimental: as §1, §2

[3] = tested on: COX-2 mRNA in RAW264.7 cells; assay: COX-2 mRNA expression analysis (RT-qPCR); conditions: LPS 100 ng/mL
Experimental: An RT-qPCR was performed to evaluate an mRNA expression inhibition ability of COX-2 and iNOS of the glycerol glucoside-based compound sample (EPS-S).
Specifically, subcultured RAW264.7 cells were aliquoted into a 60 mm dish at 1.5×10^6 cells, and cultured at 37° C. in an incubator containing 5% carbon dioxide for 24 hours, and then a culture media was replaced with a serum-free media. Then, each sample was diluted by concentration and treated onto the cells with LPS (final 100 ng/mL). After culturing for 24 hours, cells were recovered, RNA was extracted, and cDNA was synthesized. For cDNA, qPCR was performed after mixing Real-time PCR Master Mix with TaqMan probes of each of COX-2 and iNOS. Dexamethasone was used as a positive control group. The test was conducted once, and the mRNA expression inhibition rate was obtained by analyzing the result by the ΔΔCt method, and then substituted into Equation 6 below to obtain the mRNA expression inhibition rate of COX-2 and iNOS of the treated sample group compared to the negative control group.

p-IκB = assay: Western blot of p-IκB protein expression; conditions: RAW264.7 cells, LPS, 15 minutes, 100 ppm; untreated = 100, negative control 390.06
Experimental: as §1, §2

RAW264.7 cells = assay: Cell viability measurement using MTT assay; conditions: vs untreated group
Experimental: In order to evaluate a cell viability of the glycerol glucoside-based compound sample (EPS-S), an MTT assay was performed.
Specifically, subcultured RAW264.7 cells and HDF cells were aliquoted into a 96-well plate at 1×10^5, respectively, and cultured for 24 hours at 37° C. in an incubator containing 5% carbon dioxide, and then, a culture media was replaced with a serum-free media. Then, each sample was treated onto each cell by concentration. After culturing for 24 hours, an MTT solution was put into each well, reacted for 2 hours under light blocking, a supernatant was removed, a formed formazan was completely dissolved in DMSO, and an absorbance was measured at 540 nm with a microplate reader. In such a case, SDS was used as a positive control group. The test result value was calculated as in Equation 1 below and expressed as the cell viability compared to an untreated group, and was expressed as a mean±standard deviation.

SMILES: COCC(COC)OC1OC(CO)C(O)C(O)C1O (stereo not shown) [EPS-S]
- NO2 production amount ([1]; 10 ppm): 23.14 ± 0.25 µM
- NO2 production amount ([1]; 100 ppm): 23.14 µM and 22.57 ± 0.16 µM
- NO2 production amount ([1]; 500 ppm (text b168)): 22.57 µM
- NO2 production amount ([1]; 1000 ppm): 20.90 µM and 20.90 ± 0.50 µM
- inhibition at 100 ppm ([1]; Mus musculus, RAW264.7, 100 ppm, read-out: NO2 production inhibition rate): 9.47%
- inhibition at 500 ppm ([1]; Mus musculus, RAW264.7, 500 ppm, read-out: NO2 production inhibition rate): 13.2%
- inhibition at 1000 ppm ([1]; Mus musculus, RAW264.7, 1000 ppm, read-out: NO2 production inhibition rate): 24%
- p-NF-κB protein expression rate (p-NF-κB): 185.30%
- inhibition at 10 ppm ([2]; Mus musculus, RAW264.7, 24 h, 10 ppm, read-out: PGE2 production inhibitory ability): 28.3%
- inhibition at 100 ppm ([2]; Mus musculus, RAW264.7, 24 h, 100 ppm, read-out: PGE2 production inhibitory ability): 36.5%
- inhibition at 500 ppm ([2]; Mus musculus, RAW264.7, 24 h, 500 ppm, read-out: PGE2 production inhibitory ability): 47.2%
- inhibition at 1000 ppm ([2]; Mus musculus, RAW264.7, 24 h, 1,000 ppm, read-out: PGE2 production inhibitory ability): 94.1%
- p-IKK protein expression rate (p-IKK): 514.98%
- COX-2 mRNA expression inhibition rate ([3]; 24 h, 10 ppm): −9.09% and −9.09 ± 3.16%
- COX-2 mRNA expression inhibition rate ([3]; 24 h, 100 ppm): 74.44% and 74.44 ± 0.91%
- COX-2 mRNA expression inhibition rate ([3]; 24 h, 500 ppm): 76.43% and 76.43 ± 1.11%
- COX-2 mRNA expression inhibition rate ([3]; 24 h, 1,000 ppm): 83.19% and 83.19 ± 1.30%
- p-IκB protein expression rate (p-IκB): 203.52%
- cell viability (RAW264.7 cells; 24 h, 1 ppm): 103.36% and 103.36 ± 0.88%
- cell viability (RAW264.7 cells; 24 h, 10 ppm): 104.47% and 104.47 ± 3.61%
- cell viability (RAW264.7 cells; 24 h, 100 ppm): 108.58% and 108.58 ± 1.99%
- cell viability (RAW264.7 cells; 24 h, 1,000 ppm): 113.79% and 113.79 ± 0.13%

SMILES: C[C@@H]1C[C@H]2[C@@H]3CCC4=CC(=O)C=C[C@]4(C)[C@@]3(F)[C@@H](O)C[C@]2(C)[C@@]1(O)C(=O)CO [Dexamethasone]
- NO2 production amount ([1]; 10 μM): 21.29 ± 0.59 µM
- NO2 production amount ([1]; 10 μM, listed as dexamethasone): 21.29 µM
- NO2 production amount ([1]; 20 μM): 20.79 ± 0.12 µM
- NO2 production amount ([1]; 20 μM, listed as dexamethasone): 20.79 µM
- NO2 production amount ([1]; 80 μM): 19.62 ± 0.50 µM
- NO2 production amount ([1]; 80 μM, listed as dexamethasone): 19.62 µM
- inhibition at 10 µM ([1]; Mus musculus, RAW264.7, 10 μM, read-out: NO2 production inhibition rate): 21.5%
- inhibition at 20 µM ([1]; Mus musculus, RAW264.7, 20 μM, read-out: NO2 production inhibition rate): 24.7%
- inhibition at 80 µM ([1]; Mus musculus, RAW264.7, 80 μM, read-out: NO2 production inhibition rate): 32.3%
- PGE2 production inhibitory ability ([2]; 24 h, 10 Mm (10 μM)): 83.55%
- inhibition at 1 µM ([2]; Mus musculus, RAW264.7, 24 h, 1 μM, read-out: PGE2 production inhibitory ability): 62.3%
- inhibition at 5 µM ([2]; Mus musculus, RAW264.7, 24 h, 5 μM, read-out: PGE2 production inhibitory ability): 81.4%
- inhibition at 20 µM ([2]; Mus musculus, RAW264.7, 24 h, 20 μM, read-out: PGE2 production inhibitory ability): 86.4%
- inhibition at 80 µM ([2]; Mus musculus, RAW264.7, 24 h, 80 μM, read-out: PGE2 production inhibitory ability): 96.4%
- COX-2 mRNA expression inhibition rate ([3]; 24 h, 1 μM): 22.64 ± 1.27%
- COX-2 mRNA expression inhibition rate ([3]; 24 h, 1 μM, listed as dexamethasone): 22.64%
- COX-2 mRNA expression inhibition rate ([3]; 24 h, 5 μM): 71.72 ± 0.69%
- COX-2 mRNA expression inhibition rate ([3]; 24 h, 5 μM, listed as dexamethasone): 71.72%
- COX-2 mRNA expression inhibition rate ([3]; 24 h, 20 μM): 81.78 ± 0.60%
- COX-2 mRNA expression inhibition rate ([3]; 24 h, 20 μM, listed as dexamethasone): 81.78%
- COX-2 mRNA expression inhibition rate ([3]; 24 h, 80 μM): 84.23 ± 0.41%
- COX-2 mRNA expression inhibition rate ([3]; 24 h, 80 μM, listed as dexamethasone): 84.23%
- COX-2 mRNA expression inhibition rate ([3]; 24 h, 10 Mm (table head; text 10 μM)): 76.82 ± 1.73%
- COX-2 mRNA expression inhibition rate ([3]; 24 h, 10 Mm (table head; text 10 μM), listed as dexamethasone): 76.82%
